Assay results from ChEMBL document CHEMBL1201862, “PubChem BioAssay data set” (2004).
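Briefly, cells in 96-well plates were exposed to five compound concentrations for 48 h, and endpoints were estimated by linear interpolation. Here, GI50 denotes the concentration required for 50% inhibition of growth.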 The source made the active and inactive calls. Cut-off read from the data, not from the text of the source: active = GI50 up to about 1.1 µM and inactive = higher.

How the values were obtained:
Test in all cases: NCI-60 cell line screen, 48 h
UACC-257 = test system: UACC-257
IGROV-1 = test system: IGROV-1
TK-10 = test system: TK-10
HL-60 = test system: HL-60
SF-268 = test system: SF-268
SK-MEL-2 = test system: SK-MEL-2
DU-145 = test system: DU-145
KM12 = test system: KM12
EKVX = test system: EKVX
SK-MEL-5 = test system: SK-MEL-5
SK-OV-3 = test system: SK-OV-3
MOLT-4 = test system: MOLT-4
SF-539 = test system: SF-539
CAKI-1 = test system: CAKI-1
A498 = test system: A498
RXF 393 = test system: RXF 393
Hs-578T = test system: Hs-578T
M14 = test system: M14
NCI-H226 = test system: NCI-H226
HT-29 = test system: HT-29

Structure (SMILES)	GI50 (UACC-257)	GI50 (IGROV-1)	GI50 (TK-10)	GI50 (HL-60)	GI50 (SF-268)	GI50 (SK-MEL-2)	GI50 (DU-145)	GI50 (KM12)	GI50 (EKVX)	GI50 (SK-MEL-5)	GI50 (SK-OV-3)	GI50 (MOLT-4)	GI50 (SF-539)	GI50 (CAKI-1)	GI50 (A498)	GI50 (RXF 393)	GI50 (Hs-578T)	GI50 (M14)	GI50 (NCI-H226)	GI50 (HT-29)
CCOP(=O)(CC1OC(CO)C(O)C1O)OCC (configuration not stated)	> 100 µM (inactive)	> 100 µM (inactive)	> 100 µM (inactive)	> 100 µM (inactive)	> 100 µM (inactive)	> 100 µM (inactive)	> 100 µM (inactive)	> 100 µM (inactive)	> 100 µM (inactive)	> 100 µM (inactive)	> 100 µM (inactive)	> 100 µM (inactive)	> 100 µM (inactive)	> 100 µM (inactive)	> 100 µM (inactive)	> 100 µM (inactive)	> 100 µM (inactive)	> 100 µM (inactive)		
COc1ccc2c(-c3ccc(O)cc3)c(Oc3ccc(Cl)cc3)c(=O)oc2c1	8.95 µM (inactive)	3.03 µM (inactive)	5.48 µM (inactive)		8.07 µM (inactive)	4.69 µM (inactive)	4.2 µM (inactive)	5.75 µM (inactive)	3.14 µM (inactive)	3.48 µM (inactive)	12 µM (inactive)	3.72 µM (inactive)	8.26 µM (inactive)	2.81 µM (inactive)	6.79 µM (inactive)	8.34 µM (inactive)	5.62 µM (inactive)	6.07 µM (inactive)	> 20.6 µM (inactive)	
NC(=O)Cn1c(=O)oc2cc(C(=O)CN3CCOCC3)ccc21		> 100 µM (inactive)		> 100 µM (inactive)	> 100 µM (inactive)	> 100 µM (inactive)	> 100 µM (inactive)	> 100 µM (inactive)	> 100 µM (inactive)	> 100 µM (inactive)	> 100 µM (inactive)	> 100 µM (inactive)	> 100 µM (inactive)	> 100 µM (inactive)	> 100 µM (inactive)	> 100 µM (inactive)	> 100 µM (inactive)	> 100 µM (inactive)	> 100 µM (inactive)	> 100 µM (inactive)
COc1ccc(CC2C(=O)NC(C)C(=O)N(C)C3C(=O)N(C)C(Cc4ccc(O)c(c4)Oc4ccc(cc4)C3O)C(=O)NC(C)C(=O)NC(C)C(=O)N2C)cc1.COc1ccc(CC2C(=O)NC(C)C(=O)N(C)C3Cc4ccc(cc4)Oc4cc(ccc4O)CC(C(=O)NC(C)C(=O)NC(C)C(=O)N2C)N(C)C3=O)cc1 (configuration not stated)	0.00322 µM (active)	0.01 µM (active)	0.0408 µM (active)	0.01 µM (active)	0.00316 µM (active)	0.00114 µM (active)	0.00364 µM (active)	0.0024 µM (active)	0.148 µM (active)	0.0168 µM (active)	0.0179 µM (active)	0.01 µM (active)	0.00102 µM (active)	0.137 µM (active)	0.0282 µM (active)		0.01 µM (active)	0.00582 µM (active)	0.00233 µM (active)	0.01 µM (active)
COc1ccc(Nc2nc3ccccc3nc2C(=O)O)cc1	> 100 µM (inactive)	87.9 µM (inactive)	> 100 µM (inactive)	63.8 µM (inactive)	61.1 µM (inactive)	> 100 µM (inactive)	76.7 µM (inactive)	26.2 µM (inactive)	54.5 µM (inactive)	37.2 µM (inactive)	9.04 µM (inactive)	84.1 µM (inactive)	> 100 µM (inactive)	46.6 µM (inactive)	> 100 µM (inactive)	> 100 µM (inactive)	16 µM (inactive)	> 100 µM (inactive)		> 100 µM (inactive)
Nc1ccn(C2CC3OCC3O2)c(=O)n1 (configuration not stated)	> 100 µM (inactive)	> 100 µM (inactive)	> 100 µM (inactive)	> 100 µM (inactive)	> 100 µM (inactive)	> 100 µM (inactive)	> 100 µM (inactive)	> 100 µM (inactive)	> 100 µM (inactive)	> 100 µM (inactive)	> 100 µM (inactive)	> 100 µM (inactive)	> 100 µM (inactive)	> 100 µM (inactive)	> 100 µM (inactive)		> 100 µM (inactive)	> 100 µM (inactive)	> 100 µM (inactive)	> 100 µM (inactive)
Nc1ccc(-c2nc3cc(F)ccc3s2)cc1	> 43.4 µM (inactive)	13 µM (inactive)	30.5 µM (inactive)	25.4 µM (inactive)	31 µM (inactive)	30.8 µM (inactive)	30.5 µM (inactive)	> 68.4 µM (inactive)	2 µM (inactive)	61.4 µM (inactive)	> 94.2 µM (inactive)	> 82.2 µM (inactive)	> 66.1 µM (inactive)	27.7 µM (inactive)	33.5 µM (inactive)	32.3 µM (inactive)	37.7 µM (inactive)	71.6 µM (inactive)		> 91 µM (inactive)
CSCC[C@H]1C(=O)N=C(N)N1C(=O)OCc1ccccc1	40.6 µM (inactive)	63.7 µM (inactive)	37.9 µM (inactive)	14.5 µM (inactive)	38.4 µM (inactive)	> 100 µM (inactive)	> 100 µM (inactive)	42.9 µM (inactive)	53.6 µM (inactive)	46.8 µM (inactive)		18.7 µM (inactive)		20 µM (inactive)	72.9 µM (inactive)	17.3 µM (inactive)	18 µM (inactive)		30 µM (inactive)	38.3 µM (inactive)
